In paper doi:10.1101/496141v1 (bioRxiv, 2018):

What was measured:
Format in all cases: in vivo, mouse
[1] = test system: Tg2576 mice; test: Contextual fear conditioning in Tg2576 mice; conditions: 7 months old mice, 20 mg/kg i.p. 1h before training; vs Tg2576 SCR
[2] = test system: Hdh^Q111/+ knock-in mice; test: Hdh Q111/+ knock-in mice: striatal caspase-3 and pERK; conditions: 20 mg/kg i.p. for 8 days; twice a day, 7 days; vs SCR
[3] = test system: ERK phosphorylation (pERK); test: pERK positive cells in dorsal striatum after i.p. RB5; conditions: single dose 20 mg/kg i.p., n=5 mice/group, vs SCR at 1h

Sequence: GRKKRRQRRRPPQGGGGGEPRRTEGVGPGVPGEVEMVKGQPFDV [RB5]
- contextual fear memory impairment in Tg2576 mice (% of time spent freezing, 24h) [1]: fully rescued
- caspase-3 levels in striatum of Hdh^Q111/+ mice [2]: diminished caspase-3 levels
- duration of enhancement of ERK phosphorylation in dorsal striatum [3]: up to 6 h
